# Assay results published in patent US7732449B2, “Inhibitors of cathepsin S” (IRM LLC, priority 2003, dated 2010).
# Where two headings read alike, the source gives them in different places.
# How the values were obtained:
# Assay type in all cases: biochemical
# [1] = molecular target: Cathepsin L (Homo sapiens, UniProt P07711); test: Cathepsin L inhibition, fluorogenic peptide substrate kinetic assay (selectivity); settings: ratio of cathepsin L inhibition constant to cathepsin S inhibition constant
# [2] = molecular target: T1, Cathepsin K (Homo sapiens, UniProt P43235); test: Cathepsin K inhibition, fluorogenic peptide substrate kinetic assay (selectivity); settings: ratio of cathepsin K inhibition constant to cathepsin S inhibition constant
# T1 sequence (P43235 115-329): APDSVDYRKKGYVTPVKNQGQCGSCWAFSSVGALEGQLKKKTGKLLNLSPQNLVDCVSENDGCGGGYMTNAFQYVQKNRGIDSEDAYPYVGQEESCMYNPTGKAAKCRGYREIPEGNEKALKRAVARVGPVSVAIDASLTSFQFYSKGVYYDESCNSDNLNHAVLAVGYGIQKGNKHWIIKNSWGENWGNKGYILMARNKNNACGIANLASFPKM
# [3] = molecular target: Cathepsin S (Homo sapiens, UniProt P25774); test: Cathepsin S inhibition, fluorogenic peptide substrate kinetic assay;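 also: cleavage rate of a coumarin-labelled peptide substrate (50 µM) read as fluorescence increase at Ex 380 nm and Em 450 nm, relative to inhibitor-free control reactions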
# [4] = molecular target: Cathepsin B (Homo sapiens, UniProt P07858); test: Cathepsin B inhibition, fluorogenic peptide substrate kinetic assay (selectivity); settings: ratio of cathepsin B inhibition constant to cathepsin S inhibition constant;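 also: value is the cathepsin B inhibition constant divided by the cathepsin S one, each from kinetic fluorescence readings (ex 380 nm, em 450 nm) of a 10 µM coumarin peptide substrate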
# [5] = Cathepsin S inhibition constant, pH5.5, 20 minutes preincubation at room temperature, read-out: Ki Cat. S
# Cathepsin S, sequence (P25774 115-331, species assumed): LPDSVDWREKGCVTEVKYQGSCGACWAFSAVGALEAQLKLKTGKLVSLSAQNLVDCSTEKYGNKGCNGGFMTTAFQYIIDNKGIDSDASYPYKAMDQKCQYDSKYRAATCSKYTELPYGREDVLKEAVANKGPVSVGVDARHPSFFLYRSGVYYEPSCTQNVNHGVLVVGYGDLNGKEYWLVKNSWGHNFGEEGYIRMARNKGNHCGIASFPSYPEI
# Cathepsin L, sequence (P07711 114-333, species assumed): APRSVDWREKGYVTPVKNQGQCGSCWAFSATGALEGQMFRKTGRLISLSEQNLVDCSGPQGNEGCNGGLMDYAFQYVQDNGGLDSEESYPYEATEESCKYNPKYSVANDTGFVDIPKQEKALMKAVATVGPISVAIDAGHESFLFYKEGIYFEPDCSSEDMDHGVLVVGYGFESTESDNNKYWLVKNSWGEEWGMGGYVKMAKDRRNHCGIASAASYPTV
Structure (SMILES),Selectivity for Cat. S over Cat. L [1],Selectivity for Cat. S over Cat. K [2],"Ki [3, 5]",Selectivity for Cat. S over Cat. B [4],Ki [3]
"COc1ccc(NCCNC(=O)[C@@H](CC(=O)N2CCOCC2)CC2CCCCC2)cc1 [Example 19, (R)-2-Cyclohexylmethyl-N-[2-(4-methoxy-phenylamino)-ethyl]-4-morpholin-4-yl-4-oxo-butyramide]","++ (++, >100)","++ (++, >100)",100 to 1000 nM,"++ (++, >100)",
"CCC[C@@H](CNc1ccc(OC(F)(F)F)cc1)NC(=O)[C@@H](CC(=O)N1CCOCC1)CC1CCCCC1 [Example 20, 2-(R)-Cyclohexylmethyl-4-morpholin-4-yl-4-oxo-N-{1-(S)-[(4-trifluoromethoxy-phenylamino)-methyl]-butyl}-butyramide]","+ (+, >10)","+ (+, >10)",,"+++ (+++, >1000)",< 100 nM
"C[C@@H](CNc1ccc(OC(F)(F)F)cc1)NC(=O)[C@H](CCC1CCCCC1)CC(=O)N1CCOCC1 [Example 21, 2-(R)-(2-Cyclohexyl-ethyl)-N-[1-(S)-methyl-2-(4-trifluoromethoxy-phenylamino)-ethyl]-4-morpholin-4-yl-4-oxo-butyramide]","+++ (+++, >1000)","++ (++, >100)",,"+++ (+++, >1000)",< 100 nM
"CC[C@@H](CNc1ccc(OC(F)(F)F)cc1)NC(=O)[C@@H](CC(=O)N1CCOCC1)CC1CCCCC1 [Example 22, 2-(R)-Cyclohexylmethyl-4-morpholin-4-yl-4-oxo-N-{1-(S)-[(4-trifluoromethoxy-phenylamino)-methyl]-propyl}-butyramide]","+ (+, >10)","+ (+, >10)",,"+++ (+++, >1000)",< 100 nM
"C[C@@H](CNc1ccc(OC(F)(F)F)cc1)NC(=O)[C@H](CCC(C)(C)C)CC(=O)N1CCOCC1 [Example 25, 5,5-Dimethyl-2-(R)-(2-morpholin-4-yl-2-oxo-ethyl)-hexanoic acid [1-(S)-methyl-2-(4-trifluoromethoxy-phenylamino)-ethyl]-amide]","++ (++, >100)","++ (++, >100)",,"++ (++, >100)",100 to 1000 nM
"CCC[C@@H](CNc1ccc(OC(F)(F)F)cc1)NC(=O)[C@@H](CC(=O)N1CCOCC1)CC1CCCC1 [Example 27, 2-(R)-Cyclopentylmethyl-4-morpholin-4-yl-4-oxo-N-{1-(S)-[(4-trifluoromethoxy-phenylamino)-methyl]-butyl}-butyramide]","++ (++, >100)","+ (+, >10)",,"+++ (+++, >1000)",< 100 nM
"CC(C)[C@@H](CNc1ccc(OC(F)(F)F)cc1)NC(=O)[C@@H](CC(=O)N1CCOCC1)c1ccccc1 [Example 34, N-{2-Methyl-1-(S)-[(4-trifluoromethoxy-phenylamino)-methyl]-propyl}-4-morpholin-4-yl-4-oxo-2-(S)-phenyl-butyramide]","+ (+, >10)","+ (+, >10)",,"+++ (+++, >1000)",< 100 nM
"CC(C)[C@@H](CNc1ccc(OC(F)(F)F)cc1)NC(=O)[C@@H](CC(=O)N1CCOCC1)C1CCCCC1 [Example 35, 2-(S)-Cyclohexyl-N-{2-methyl-1-(S)-[(4-trifluoromethoxy-phenylamino)-methyl]-propyl}-4-morpholin-4-yl-4-oxo-butyramide]","++ (++, >100)","+ (+, >10)",< 100 nM,"+++ (+++, >1000)",
"CC[C@@H](CNc1ccc(OC(F)(F)F)cc1)NC(=O)[C@H](CCC1CCCC1)CC(=O)N1CCOCC1 [Example 36, 2-(R)-(2-Cyclopentyl-ethyl)-4-morpholin-4-yl-4-oxo-N-{1-(S)-[(4-trifluoromethoxy-phenylamino)-methyl]-propyl}-butyramide]","+ (+, >10)","++ (++, >100)",< 100 nM,"+++ (+++, >1000)",
"O=C(N[C@@H](CCc1ccccc1)CNc1ccc(OC(F)(F)F)cc1)[C@H](CCC1CCCC1)CC(=O)N1CCOCC1 [Example 37, 2-(R)-(2-Cyclopentyl-ethyl)-4-morpholin-4-yl-4-oxo-N-{3-phenyl-1-(S)-[(4-trifluoromethoxy-phenylamino)-methyl]-propyl}-butyramide]","+ (+, >10)","++ (++, >100)",,"++ (++, >100)",< 100 nM
"CCC[C@@H](CNc1ccc(OC(F)(F)F)cc1)NC(=O)[C@@H](CC(=O)N1CCOCC1)c1ccccc1 [Example 39, 4-Morpholin-4-yl-4-oxo-2-(S)-phenyl-N-{1-(S)-[(4-trifluoromethoxy-phenylamino)-methyl]-butyl}-butyramide]","++ (++, >100)","+ (+, >10)",< 100 nM,"+++ (+++, >1000)",
"CC(C)[C@@H](CNc1ccc(OC(F)(F)F)cc1)NC(=O)[C@@H](CC(=O)N1CCOCC1)c1ccc(F)cc1 [Example 41, 2-(S)-(4-Fluoro-phenyl)-N-{2-methyl-1-(S)-[(4-trifluoromethoxy-phenylamino)-methyl]-propyl}-4-morpholin-4-yl-4-oxo-butyramide]","++ (++, >100)","+ (+, >10)",,"+++ (+++, >1000)",< 100 nM
"CC(C)[C@@H](CNc1ccc(OC(F)(F)F)cc1)NC(=O)[C@@H](CC(=O)N1CCOCC1)c1ccc(Cl)cc1 [Example 42, 2-(S)-(4-Chloro-phenyl)-N-{2-methyl-1-(S)-[(4-trifluoromethoxy-phenylamino)-methyl]-propyl}-4-morpholin-4-yl-4-oxo-butyramide]","++ (++, >100)","+++ (+++, >1000)",,"+++ (+++, >1000)",< 100 nM
"CC(C)[C@@H](CNc1ccc(OC(F)(F)F)cc1)NC(=O)[C@H](CC(=O)N1CCOCC1)c1ccc(Cl)cc1 [Example 43, 2-(R)-(4-Chloro-phenyl)-N-{2-methyl-1-(S)-[(4-trifluoromethoxy-phenylamino)-methyl]-propyl}-4-morpholin-4-yl-4-oxo-butyramide]","++ (++, >100)","++ (++, >100)",,"++ (++, >100)",100 to 1000 nM
"O=C(N[C@H](CNc1ccc(OC(F)(F)F)cc1)c1ccccc1)[C@@H](CC(=O)N1CCOCC1)CC1CCCCC1 [Example 45, 2-(R)-Cyclohexylmethyl-4-morpholin-4-yl-4-oxo-N-[1-(S)-phenyl-2-(4-trifluoromethoxy-phenylamino)-ethyl]-butyramide]","++ (++, >100)","++ (++, >100)",,"+++ (+++, >1000)",< 100 nM
"O=C(N[C@H](CNc1ccc(OC(F)(F)F)cc1)c1ccccc1)[C@H](CCC1CCCC1)CC(=O)N1CCOCC1 [Example 46, 2-(R)-(2-Cyclopentyl-ethyl)-4-morpholin-4-yl-4-oxo-N-[1-(S)-phenyl-2-(4-trifluoromethoxy-phenylamino)-ethyl]-butyramide]","++ (++, >100)","+++ (+++, >1000)",< 100 nM,"+++ (+++, >1000)",
"O=C(N[C@H](CNc1ccc(OC(F)(F)F)cc1)c1ccccc1)[C@@H](CC(=O)N1CCOCC1)c1ccc(Cl)cc1 [Example 48, 2-(S)-(4-Chloro-phenyl)-4-morpholin-4-yl-4-oxo-N-[1-(S)-phenyl-2-(4-trifluoromethoxy-phenylamino)-ethyl]-butyramide]","++ (++, >100)","+ (+, >10)",100 to 1000 nM,"++ (++, >100)",
"Cc1cc(NCCNC(=O)[C@H](CCC(C)(C)C)CC(=O)N2CCOCC2)no1 [Example 49, (R)-5,5-Dimethyl-2-(2-morpholin-4-yl-2-oxo-ethyl)-hexanoic acid [2-(5-methyl-isoxazol-3-ylamino)-ethyl]-amide]","+ (+, >10)","+ (+, >10)",1000 to 10000 nM,"+ (+, >10)",
